Laboratory results taken from patent US9657002B2, “Oxindole derivatives carrying an oxetane substituent and use thereof for treating vassopressin-related diseases” (AbbVie Deutschland GmbH & Co. KG, priority 2013, dated 2017).

Tests used:
[1] = test system: stress-induced ACTH release; experiment: Stress-induced ACTH release; format: in vivo, NMRI mice; conditions: mice, restraint stress, i.p. 1 hour before; at 10 and 30 mg/kg
From the text: (§1) Male NMRI mice (Janvier, Le Genest-St-Isle, France) were used for stress-induced Adrenocorticotropic hormone (ACTH) release. Adult male Wistar rats (175-220 g body weight upon arrival) were obtained from Harlan Inc. (Indianapolis, Ind.). For the forced swim test, male Sprague Dawley rats (100-120 g body weight upon arrival) were obtained from Janvier (Le Genest-St-Isle, France). The animals were acclimatized to the animal facilities for at least one week before the start of the experimental procedures. Animals were maintained in a controlled environment on a 12:12 hour light dark schedule (lights on 06:00 h for rats in Vogel conflict test and 05:30 h for rats in forced swim test). Experimental procedures took place during the illuminated phase of the light/dark cycle. Food and water were available ad libitum, except for the Vogel conflict test, where the animals were submitted to a water deprivation regimen as described below. […]
The blood was collected in 1.3 mL blood sampling vials containing potassium EDTA (Sarstedt, Nümbrecht, Germany) and […] aprotinin solution (saline solution, 3-7 TIU [trypsin inhibitor units]/mg protein; Sigma-Aldrich, Germany). […] ACTH concentrations were measured by an ELISA (enzyme-linked immuno sorbent assay) for ACTH (IBL Hamburg, Germany). […]

Wistar rats = experiment: Vogel conflict test; format: in vivo; conditions: i.p. 30 minutes before the test, at 10 and 30 mg/kg
From the text: as §1
The Vogel conflict test is a well-validated animal model to detect compounds with anxiolytic properties. […] The number of punished responses was automatically recorded for each rat during 5 min of testing. […]

Sprague Dawley rats = experiment: Forced swim test; format: in vivo; conditions: i.p. 24, 4 and 0.5 hours before testing, at 10 mg/kg
From the text: as §1
The forced swim test consisted of a pre-test and a test swim. […] Test swims were recorded on videotape and subsequently used for analysis. […]

[2] = target: T1, human vasopressin V1b receptor (Homo sapiens, UniProt P47901); experiment: biochemical
T1 sequence (P47901 1-424): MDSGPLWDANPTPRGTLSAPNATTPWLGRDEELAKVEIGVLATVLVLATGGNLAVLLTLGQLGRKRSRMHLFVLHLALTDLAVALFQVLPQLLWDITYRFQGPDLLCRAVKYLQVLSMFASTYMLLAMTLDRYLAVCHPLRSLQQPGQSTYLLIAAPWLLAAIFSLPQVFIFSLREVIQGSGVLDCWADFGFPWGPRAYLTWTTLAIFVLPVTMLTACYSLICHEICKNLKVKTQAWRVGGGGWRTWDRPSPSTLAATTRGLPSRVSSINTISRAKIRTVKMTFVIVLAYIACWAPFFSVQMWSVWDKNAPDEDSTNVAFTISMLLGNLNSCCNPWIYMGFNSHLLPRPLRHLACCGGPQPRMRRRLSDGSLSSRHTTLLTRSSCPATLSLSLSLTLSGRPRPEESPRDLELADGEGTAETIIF

[3] = target: human vasopressin V1a receptor (Homo sapiens, UniProt P37288); experiment: Vasopressin V1a receptor binding assay; conditions: selectivity quotient, human V1a vs human V1b
Sequence of human vasopressin V1a receptor (P37288 whole entry): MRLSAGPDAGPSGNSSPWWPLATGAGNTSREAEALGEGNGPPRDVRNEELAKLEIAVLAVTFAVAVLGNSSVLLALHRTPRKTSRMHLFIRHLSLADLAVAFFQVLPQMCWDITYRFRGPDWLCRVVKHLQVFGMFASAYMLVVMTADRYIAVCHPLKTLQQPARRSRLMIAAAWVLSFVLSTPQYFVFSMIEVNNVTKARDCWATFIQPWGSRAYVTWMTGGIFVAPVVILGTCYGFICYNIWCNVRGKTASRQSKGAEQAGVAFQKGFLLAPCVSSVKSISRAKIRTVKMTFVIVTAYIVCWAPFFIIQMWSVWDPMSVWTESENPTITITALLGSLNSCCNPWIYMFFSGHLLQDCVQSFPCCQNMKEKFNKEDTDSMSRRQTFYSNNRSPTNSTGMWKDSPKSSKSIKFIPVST

Ki [2]: 10 to 100 nM | Ki(h-V1a)/Ki(h-V1b) [3]: +++ (>75)
SMILES: COc1ccc(S(=O)(=O)N2C(=O)[C@@](NC(=O)N3CCN(C4CCN(C5COC5)CC4)CC3)(c3cccnc3OC)c3cc(C#N)ccc32)c(OC)c1 [Example 21, N-[(3S)-5-cyano-1-(2,4-dimethoxyphenyl)sulfonyl-3-(2-methoxy-3-pyridyl)-2-oxo-indolin-3-yl]-4-[1-(oxetan-3-yl)-4-piperidyl]piperazine-1-carboxamide]
stress-induced ACTH release [1]: significantly blocked the stress response | punished responses in Vogel conflict (anxiolytic-like efficacy) (Wistar rats): significant effect | latency to immobility in the forced swim test (antidepressant-like effect) (Sprague Dawley rats): significant antidepressant-like effect
